From ChEMBL document CHEMBL1140388, “Privileged structure-based ligands for melanocortin receptors-tetrahydroquinolines, indoles, and aminotetralines” (Bioorg Med Chem Lett, 2005)

Key:
Melanocortin receptor 4 = Melanocortin receptor 4 (Homo sapiens, UniProt P32245); experiment: Inhibition of [125I]-NDP MSH binding towards human melanocortin 4 receptor
[1] = molecular target: Melanocortin receptor (M1 and M4) (Homo sapiens) (UniProt P32245+Q01726); experiment: Binding selectivity across hMC 4 and hMC 1 by determining the competitive inhibition of [125 I]NDP MSH binding; format: protein assay
[2] = molecular target: Melanocortin receptor (M4 and M5) (Homo sapiens) (UniProt P32245+P33032); experiment: Binding selectivity across hMC 4 and hMC 5 by determining the competitive inhibition of [125 I]NDP MSH binding; format: protein assay
Sequence of Melanocortin receptor (M4 and M5) (Homo sapiens) (P32245 whole entry, looked up): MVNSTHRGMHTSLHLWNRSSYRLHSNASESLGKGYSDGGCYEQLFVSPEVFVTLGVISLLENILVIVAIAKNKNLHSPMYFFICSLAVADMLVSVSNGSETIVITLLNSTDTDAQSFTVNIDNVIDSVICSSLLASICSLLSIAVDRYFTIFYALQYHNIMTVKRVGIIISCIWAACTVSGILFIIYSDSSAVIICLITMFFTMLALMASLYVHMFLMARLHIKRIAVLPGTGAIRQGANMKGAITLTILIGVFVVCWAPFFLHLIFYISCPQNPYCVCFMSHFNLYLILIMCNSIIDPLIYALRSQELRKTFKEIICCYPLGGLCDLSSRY
Sequence of Melanocortin receptor (M4 and M5) (Homo sapiens) (P33032 whole entry, looked up): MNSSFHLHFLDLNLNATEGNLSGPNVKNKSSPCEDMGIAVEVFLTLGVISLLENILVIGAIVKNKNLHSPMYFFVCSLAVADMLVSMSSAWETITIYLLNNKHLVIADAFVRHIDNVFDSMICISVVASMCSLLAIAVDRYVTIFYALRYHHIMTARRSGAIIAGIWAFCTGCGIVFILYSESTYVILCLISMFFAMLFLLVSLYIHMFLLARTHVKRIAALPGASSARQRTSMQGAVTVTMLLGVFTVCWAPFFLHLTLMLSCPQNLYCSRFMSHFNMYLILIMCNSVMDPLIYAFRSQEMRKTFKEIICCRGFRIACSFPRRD

Melanocortin receptor 3 = Melanocortin receptor 3 (Homo sapiens, UniProt P41968); experiment: Inhibition of [125I]-NDP MSH binding towards human melanocortin 3 receptor
Sequence of Melanocortin receptor 3 (P41968 whole entry): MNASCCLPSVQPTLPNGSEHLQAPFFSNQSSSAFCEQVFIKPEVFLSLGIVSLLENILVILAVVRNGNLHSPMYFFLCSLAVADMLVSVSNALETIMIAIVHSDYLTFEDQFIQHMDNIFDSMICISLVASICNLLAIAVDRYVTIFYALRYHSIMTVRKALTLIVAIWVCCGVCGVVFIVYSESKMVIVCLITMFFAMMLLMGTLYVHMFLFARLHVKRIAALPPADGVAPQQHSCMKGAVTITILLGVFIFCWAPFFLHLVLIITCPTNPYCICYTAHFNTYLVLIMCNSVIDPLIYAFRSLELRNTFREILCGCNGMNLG

[3] = molecular target: Melanocyte-stimulating hormone receptor (Homo sapiens, UniProt Q01726); experiment: Inhibition of [125I]-NDP MSH binding towards human melanocortin 1 receptor
Sequence of Melanocyte-stimulating hormone receptor (Q01726 whole entry): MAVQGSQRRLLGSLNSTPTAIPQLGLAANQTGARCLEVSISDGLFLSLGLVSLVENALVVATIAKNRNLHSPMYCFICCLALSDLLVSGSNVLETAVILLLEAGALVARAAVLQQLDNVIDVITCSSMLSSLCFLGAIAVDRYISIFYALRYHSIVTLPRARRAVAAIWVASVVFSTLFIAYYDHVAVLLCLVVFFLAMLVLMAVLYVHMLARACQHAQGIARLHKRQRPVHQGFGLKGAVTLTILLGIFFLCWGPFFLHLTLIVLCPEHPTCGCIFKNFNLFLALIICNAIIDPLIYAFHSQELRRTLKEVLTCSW

Melanocortin receptor 5 = Melanocortin receptor 5 (Homo sapiens, UniProt P33032); experiment: Inhibition of [125I]-NDP MSH binding towards human melanocortin 5 receptor
Sequence of Melanocortin receptor 5 (P33032 whole entry): as the sequence (P33032 whole entry, looked up) above

[4] = molecular target: Melanocortin receptor (M3 and M4) (Homo sapiens) (UniProt P32245+P41968); experiment: Binding selectivity across hMC 4 and hMC 3 by determining the competitive inhibition of [125 I]NDP MSH binding; format: protein assay

Sequence of Melanocortin receptor 4 (P32245 whole entry): as the sequence (P32245 whole entry, looked up) above

| SMILES | Ki (Melanocortin receptor 4) [nM] | also measured |
| --- | --- | --- |
| NC1CCc2cccc(N3CCN(C(=O)[C@@H](Cc4ccc(Cl)cc4)NC(=O)[C@H]4Cc5ccccc5CN4)CC3)c2C1 (stereo partly drawn) | 240 |  |
| O=C(N[C@H](Cc1ccc(Cl)cc1)C(=O)N1CCN(c2cccc3cc[nH]c23)CC1)[C@H]1Cc2ccccc2CN1 | 4800 |  |
| O=C(N[C@H](Cc1ccc(Cl)cc1)C(=O)N1CCN(c2cccc3c2CN(S(=O)(=O)c2ccccc2)CC3)CC1)[C@H]1Cc2ccccc2CN1 | 2500 | Binding selectivity [1]: 23; Binding selectivity [2]: 2.6; Ki (Melanocortin receptor 3): 1200 nM; Ki [3]: 7000 nM; Ki (Melanocortin receptor 5): 700 nM; Binding selectivity [4]: 4 |
| CC(=O)N1CCCc2cccc(N3CCN(C(=O)[C@@H](Cc4ccc(Cl)cc4)NC(=O)[C@H]4Cc5ccccc5CN4)CC3)c21 | 7700 | Binding selectivity [1]: 23; Binding selectivity [2]: 5; Ki (Melanocortin receptor 3): 500 nM; Ki [3]: 20000 nM; Ki (Melanocortin receptor 5): 4000 nM; Binding selectivity [4]: 0.6 |
| CC(C)S(=O)(=O)N1CCc2cccc(N3CCN(C(=O)[C@@H](Cc4ccc(Cl)cc4)NC(=O)[C@H]4Cc5ccccc5CN4)CC3)c2C1 | 950 |  |
| CCN1CCc2c(cccc2N2CCN(C(=O)[C@@H](Cc3ccc(Cl)cc3)NC(=O)[C@H]3Cc4ccccc4CN3)CC2)C1 | 700 |  |
| CS(=O)(=O)N1CCc2cccc(N3CCN(C(=O)[C@@H](Cc4ccc(Cl)cc4)NC(=O)[C@H]4Cc5ccccc5CN4)CC3)c2C1 | 600 |  |
| CN(C1CCc2cccc(N3CCN(C(=O)[C@@H](Cc4ccc(Cl)cc4)NC(=O)[C@H]4Cc5ccccc5CN4)CC3)c2C1)S(C)(=O)=O (stereo partly drawn) | 530 |  |
| CN(C)[C@@H]1CCc2cccc(N3CCN(C(=O)[C@@H](Cc4ccc(Cl)cc4)NC(=O)[C@H]4Cc5ccccc5CN4)CC3)c2C1 | 80 |  |
| CN(C)[C@H]1CCc2cccc(N3CCN(C(=O)[C@@H](Cc4ccc(Cl)cc4)NC(=O)[C@H]4Cc5ccccc5CN4)CC3)c2C1 | 50 |  |
| CC(=O)NC1CCc2cccc(N3CCN(C(=O)[C@@H](Cc4ccc(Cl)cc4)NC(=O)[C@H]4Cc5ccccc5CN4)CC3)c2C1 (stereo partly drawn) | 410 |  |
| O=C(N[C@H](Cc1ccc(Cl)cc1)C(=O)N1CCN(c2cccc3c2NCC3)CC1)[C@H]1Cc2ccccc2CN1 | 2100 |  |
| CS(=O)(=O)N1CCCc2cccc(N3CCN(C(=O)C(Cc4ccc(Cl)cc4)NC(=O)[C@H]4Cc5ccccc5CN4)CC3)c21 (stereo partly drawn) | 900 |  |
| CCN1CCc2cccc(N3CCN(C(=O)[C@@H](Cc4ccc(Cl)cc4)NC(=O)[C@H]4Cc5ccccc5CN4)CC3)c2C1 | 190 |  |
| CS(=O)(=O)N1CCc2cccc(N3CCN(C(=O)C(Cc4ccc(Cl)cc4)NC(=O)[C@H]4Cc5ccccc5CN4)CC3)c21 (stereo partly drawn) | 900 |  |
| O=C(N[C@H](Cc1ccc(Cl)cc1)C(=O)N1CCN(c2cccc3c2CCCC3)CC1)[C@H]1Cc2ccccc2CN1 | 4200 | Binding selectivity [1]: 47; Binding selectivity [2]: 3.8; Ki (Melanocortin receptor 3): 1200 nM; Ki [3]: 3000 nM; Ki (Melanocortin receptor 5): 260 nM; Binding selectivity [4]: 181 |
| O=C(N[C@H](Cc1ccc(Cl)cc1)C(=O)N1CCN(c2cccc3c2NCCC3)CC1)[C@H]1Cc2ccccc2CN1 | 1600 |  |
| CCCN(CCC)C1CCc2cccc(N3CCN(C(=O)[C@@H](Cc4ccc(Cl)cc4)NC(=O)[C@H]4Cc5ccccc5CN4)CC3)c2C1 (stereo partly drawn) | 180 |  |
| CN1CCc2cccc(N3CCN(C(=O)[C@@H](Cc4ccc(Cl)cc4)NC(=O)[C@H]4Cc5ccccc5CN4)CC3)c2C1 | 280 |  |
| CC(=O)N1CCc2cccc(N3CCN(C(=O)[C@@H](Cc4ccc(Cl)cc4)NC(=O)[C@H]4Cc5ccccc5CN4)CC3)c2C1 | 500 |  |
| CN(C)C1CCc2cccc(N3CCN(C(=O)[C@@H](Cc4ccc(Cl)cc4)NC(=O)[C@H]4Cc5ccccc5CN4)CC3)c2C1 (stereo partly drawn) | 70 | Binding selectivity [1]: 72; Binding selectivity [2]: 5.6; Ki (Melanocortin receptor 3): 8200 nM; Ki [3]: 4000 nM; Ki (Melanocortin receptor 5): 280 nM; Binding selectivity [4]: 164 |
| CNC1CCc2cccc(N3CCN(C(=O)[C@@H](Cc4ccc(Cl)cc4)NC(=O)[C@H]4Cc5ccccc5CN4)CC3)c2C1 (stereo partly drawn) | 150 |  |
| CS(=O)(=O)N1CCc2c(cccc2N2CCN(C(=O)[C@@H](Cc3ccc(Cl)cc3)NC(=O)[C@H]3Cc4ccccc4CN3)CC2)C1 | 3900 |  |
| CCN(CC)C1CCc2cccc(N3CCN(C(=O)[C@@H](Cc4ccc(Cl)cc4)NC(=O)[C@H]4Cc5ccccc5CN4)CC3)c2C1 (stereo partly drawn) | 170 |  |
